Measured values from ChEMBL document CHEMBL1133184, “SAR of 9-amino-1,2,3,4-tetrahydroacridine-based acetylcholinesterase inhibitors: synthesis, enzyme inhibitory activity, QSAR, and structure-based CoMFA of tacrine analogues” (J Med Chem, 2000).

Experiments:
[1] = molecular target: T1, Acetylcholinesterase (Homo sapiens, UniProt P22303)
Description: Experimental pIC50 values for the inhibition of acetylcholinesterase

[2] = molecular target: T1, Acetylcholinesterase; remark: listed apart in the source
Description: Inhibitory activity against human erythrocyte acetylcholinesterase

T1 sequence (P22303 whole entry): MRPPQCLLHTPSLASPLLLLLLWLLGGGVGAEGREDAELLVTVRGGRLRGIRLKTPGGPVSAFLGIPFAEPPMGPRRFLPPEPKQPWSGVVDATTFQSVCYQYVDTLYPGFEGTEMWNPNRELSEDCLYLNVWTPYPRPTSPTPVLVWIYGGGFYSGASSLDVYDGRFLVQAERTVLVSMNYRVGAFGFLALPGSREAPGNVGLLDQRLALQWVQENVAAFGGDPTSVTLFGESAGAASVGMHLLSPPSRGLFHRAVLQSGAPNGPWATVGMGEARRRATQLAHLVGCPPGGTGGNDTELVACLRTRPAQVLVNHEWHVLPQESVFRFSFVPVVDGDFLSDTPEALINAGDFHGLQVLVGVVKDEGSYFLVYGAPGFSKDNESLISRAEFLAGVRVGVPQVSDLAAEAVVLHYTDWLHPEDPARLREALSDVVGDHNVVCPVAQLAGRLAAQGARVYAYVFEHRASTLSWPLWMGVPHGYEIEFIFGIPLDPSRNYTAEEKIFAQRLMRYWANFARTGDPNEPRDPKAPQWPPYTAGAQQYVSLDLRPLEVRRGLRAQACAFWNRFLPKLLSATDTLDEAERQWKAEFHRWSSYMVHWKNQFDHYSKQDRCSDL

SMILES	IC50 [1] [nM]	IC50 [2] [nM]
Nc1c2c(nc3ccccc13)-c1ccc(F)cc1C2	437	–
CCCCCCCNc1c2c(nc3cc([N+](=O)[O-])ccc13)CCCC2	295	290
COc1ccc2c(N)c3c(nc2c1)CCCC3	355	350
O=[N+]([O-])c1ccc2nc3c(c(NCc4ccccc4)c2c1)CCCC3	1580	1600
Clc1ccc2c(NCc3ccccc3)c3c(nc2c1)CCCC3	170	170
Nc1c2c(nc3cc(Cl)ccc13)-c1ccccc1C2	6610	–
CCCCCCCNc1c2c(nc3cc(Cl)ccc13)CCCC2	13.2	13
Nc1c2c(nc3ccc([N+](=O)[O-])cc13)CCCC2	3020	3000
Cc1ccc2c(N)c3c(nc2c1)CCCC3	100	100
CCCCCCCNc1c2c(nc3cc(C)ccc13)CCCC2	129	130
Nc1ccc2nc3c(c(N)c2c1)CCCC3	3800	3800
O=[N+]([O-])c1ccc2c(NCc3ccccc3)c3c(nc2c1)CCCC3	4790	4800
Nc1c2c(nc3cc(F)ccc13)CCCC2	87.1	87
CCCCCCCNc1c2c(nc3cc(F)ccc13)CCCC2	45.7	45
CCCCCCCNc1c2c(nc3ccc(C)cc13)CCCC2	389	390
Nc1c2c(nc3cc(Br)ccc13)CCCC2	–	66
COc1cc2nc3c(c(N)c2cc1OC)CCCC3	5130	5200
Nc1c2c(nc3cc(Cl)c(Cl)cc13)CCCC2	479	470
CCCCCCCNc1c2c(nc3cc(OC)ccc13)CCCC2	468	460
Nc1c2c(nc3ccc(Cl)cc13)CCCC2	550	550
Cc1ccc2nc3c(c(N)c2c1)CCCC3	8130	8100
Cc1ccc2c(NCc3ccccc3)c3c(nc2c1)CCCC3	741	750
COc1cccc2c1Cc1c-2nc2ccccc2c1N	1660	–
Cc1ccc2nc3c(c(NCc4ccccc4)c2c1)CCCC3	3720	3700
